Assay results as given in paper PMC10786692 (The Journal of Clinical Investigation, 2024).

Experiments:
phospho-(S345)Chk1 = test: PBMC phospho-Chk1 immunofluorescence; assay type: in vivo, human; conditions: after 2-week dosing
Procedure: (§1) PD sampling took place at baseline (within 7 days prior to dosing) and between days 15 and 22 of dosing (day 14 for intermittent dosing cohorts). PD samples included PBMCs and tumor biopsies. PBMCs were analyzed by immunofluorescence for γ^(S139)H2AX, p-^(S345)Chk1, and total Chk1, as described in Supplemental Methods. Paired tumor biopsies were formalin fixed and analyzed for nuclear p-^(S635)Rad50 and γH2AX by IHC.
PBMCs were isolated from blood using BD Vacutainer® CPT™ Cell preparation tubes with sodium citrate (BD Biosciences, Wokingham, UK) and fixed with 4% formalin containing 1% Triton™ X-100 (Sigma-Aldrich, St. Louis, MO). […] A Carl Zeiss LSM 700 confocal laser scanning fluorescence microscope (Zeiss, Jena, Germany) was used to visualize and capture images of the PBMCs. Fluorescent nuclear intensity for phospho-(S345) and total Chk1 in individual PBMC cells were quantified using the IN Cell Investigator Developer Toolbox v1.9 software (GE Healthcare Biosciences, Piscataway, NJ). For the phospho(S345)- and total Chk1 assays: the raw data values (fluorescent nuclear intensity for PBMCs), the percentage change for phospho(S345) biomarker was calculated for each subject by comparing the levels measured at each post-dose time point to pre-dose levels measured at baseline. […]
Peripheral blood was drawn into 8 mL EDTA tubes (Vacutainer, BD) and analyzed within 24 hours. […]

γH2AX = test: Paired tumor biopsy γH2AX IHC; assay type: in vivo, human; conditions: four paired biopsies, after 2-week dosing
Procedure: as §1, with “IHC. […]” for “IHC.”
signatures for heatmap construction were used from MSigDB (49) and cell-type-related transcripts from NanoString annotations and Bindea et al (50). Cell-type deconvolution was performed using CIBERSORTx (51).
Supplementary Pharmacodynamic methods
Formalin fixed paraffin-embedded tumor samples were used. […] H-score was calculated using HALO image analysis (Indica Labs). […] Nuclear ATM (Abcam 32420) IHC staining was carried out on the Ventana autostainer, using DAB detection and assessed by H-score, but samples were only deemed acceptable if lymphocyte staining (internal control) was at least 2+ (moderate) intensity. Cyclin E1 (Invitrogen HE12) staining was carried out on the Ventana autostainer, using DAB detection and the H-score was quantified using HALO image analysis (Indica Labs). Ki67 (Mib-1, Dako M7240) was scored by percent nuclear positivity using a global unweighted method, scoring 4 areas of 100 cells. […]

[1] = tested on: peripheral blood immune cells; test: Flow cytometry immune profiling of peripheral blood; assay type: in vivo, human
Procedure: DNA-Seq of tumor and matched buffy coats was either by whole-exome sequencing or a custom-designed panel targeting all exons of genes of interest for 173 genes, including potential markers of sensitivity to ATRi. ACK-lysed whole blood or PBMCs were stained for flow cytometry using 8 multicolor panels. Plasma cytokines were assessed using the Bio-Plex Pro 27-Plex Panel (Bio-Rad). See Supplemental Methods for full information. […]
Peripheral blood was drawn into 8 mL EDTA tubes (Vacutainer, BD) and analyzed within 24
hours. ACK-lysed whole blood (for myeloid panel) or PBMC from density gradient centrifugation
(for lymphocyte panel) were used. Samples were surface-stained with antibodies for 30 mins at
4 OC. Samples were analyzed on a LSR Fortessa (BD Biosciences). FACS analyses were
CD56 PE-Dazzle 594 Biolegend
CD62L PerCp Cy5.5 Biolegend
NKp30 PerCp Cy5.5 Biolegend
TIGIT PerCp Cy5.5 eBioscience
CD45RO Pacific Blue Biolegend
CTLA-4 PE-Dazzle 594 Biolegend
CD57 PerCp Cy5.5 Biolegend
CD38 PE-Dazzle 594 Biolegend
CD11b ICRF44 PE Biolegend
HLA-DR L243 PerCP Cy5.5 Biolegend
CD16 3G8 APC-C7 Biolegend

[2] = preclinical monotherapy; cited from earlier work

C[C@@H]1COCCN1c1cc(C2([S@](C)(=N)=O)CC2)nc(-c2cc[nH]c3nccc2-3)n1 [ceralasertib]
p-Chk1 levels in PBMCs with treatment (phospho-(S345)Chk1): not consistent | Number of γH2AX-positive cells in paired tumor biopsies (γH2AX): increase | CD8+ T cells in peripheral blood ([1]; 160 mg BD intermittent): trend toward increased | Classical and intermediate monocytes ([1]; 160 mg BD intermittent): reduction | Granulocytic MDSCs (gMDSC) ([1]; 160 mg BD intermittent): increased | Monocytic MDSCs (mMDSCs) ([1]; 160 mg BD intermittent): reduced | Naive and central memory CD8+ and CD4+ T cells ([1]; 160 mg BD intermittent): increased | PD-1–positive CD8+ T cells ([1]; 160 mg BD intermittent): reduction | Tregs in peripheral blood ([1]; 160 mg BD intermittent, 8 participants): reduction | Memory CD4-TEMRA cells ([1]; day 29): increased frequencies | NKG2A- and CD69-positive NK cells ([1]; normalized after the 2-week break): trend toward increased | GI50 [2]: ~1000 nM
